Test results: patent US9187472B2 (AbbVie Inc., priority 2012, dated 2015)
pIC50: −log10 of the molar value.

What was measured:
[1] = target: NAMPT (human, recombinant, C-terminally His-tagged) (Homo sapiens, UniProt P43490); test: Time-Resolved Fluorescence Resonance Energy Transfer (TR-FRET) Binding Assay of NAMPT; settings: without substrates; 6.8 nM NAMPT, 200 nM probe, 3 hours equilibration
In short: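 In a displacement format, the nicotinamide-site tracer at 200 nM competed with test compound for 6.8 nM enzyme detected via 1 nM terbium anti-His antibody; incubation lasted 3 hours at room temperature in 50 mM HEPES pH 7.5, 100 mM NaCl. Normalized 520/495 nm emission ratios gave IC50 values.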

NAMPT = NAMPT (Homo sapiens, UniProt P43490); test: TR-FRET Binding Assay of NAMPT with PRPP; settings: with 200 μM PRPP and 2.5 mM ATP; 2 nM NAMPT, 2 nM probe, 16 hours equilibration
Chain of NAMPT (P43490 whole entry): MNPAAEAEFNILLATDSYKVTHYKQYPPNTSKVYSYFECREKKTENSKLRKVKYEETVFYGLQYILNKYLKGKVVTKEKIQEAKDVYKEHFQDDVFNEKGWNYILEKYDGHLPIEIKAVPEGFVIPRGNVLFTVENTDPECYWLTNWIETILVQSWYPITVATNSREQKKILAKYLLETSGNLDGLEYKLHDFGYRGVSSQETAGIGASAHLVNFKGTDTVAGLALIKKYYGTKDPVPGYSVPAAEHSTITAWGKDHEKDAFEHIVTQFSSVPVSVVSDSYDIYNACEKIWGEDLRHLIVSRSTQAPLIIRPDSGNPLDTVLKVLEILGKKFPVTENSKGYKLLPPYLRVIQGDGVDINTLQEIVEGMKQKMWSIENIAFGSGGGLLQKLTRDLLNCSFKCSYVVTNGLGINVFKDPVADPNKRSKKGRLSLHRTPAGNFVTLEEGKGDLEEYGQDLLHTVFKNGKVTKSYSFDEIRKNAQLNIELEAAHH
In short: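 Substrate-containing variant: 200 μM PRPP plus 2.5 mM ATP are added to 2 nM NAMPT and 2 nM probe, with a 16-hour incubation ahead of TR-FRET reading.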

PC3 cells = test: NAMPT Cell Proliferation Assay; format: cell-based; settings: Homo sapiens, PC-3, 120 h, 5 days incubation, cell viability by Cell Titer Glo
In short: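 IC50 values derive from sigmoidal dose-response fits of percent inhibition of PC3 viability, measured by luminescence after 5 days of compound treatment. Cells (500/well, RPMI containing 10% heat-inactivated FBS) are allowed to attach overnight, and compounds are tested at 10-fold dilutions between 10 μM and 1×10^−5 μM.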

Chain of NAMPT (human, recombinant, C-terminally His-tagged) (P43490 whole entry): as above

pIC50 [1] | pIC50 (NAMPT) | pIC50 (PC3 cells) | Structure (SMILES)
6.67 | 9.15 | 7.24 | O=C(NCc1ccn2ccnc2c1)c1ccc(C2CN(C(=O)c3ccco3)C2)cc1 [Example 639, 4-[1-(furan-2-ylcarbonyl)azetidin-3-yl]-N-(imidazo[1,2-a]pyridin-7-ylmethyl)benzamide]
6.77 | 9.09 | 7.30 | O=C(NCc1ccn2ccnc2c1)c1ccc(C2CN(C(=O)c3cccc(F)c3)C2)cc1 [Example 640, 4-[1-(3-fluorobenzoyl)azetidin-3-yl]-N-(imidazo[1,2-a]pyridin-7-ylmethyl)benzamide]
7.13 | 9.16 | 8.00 | O=C(NCc1ccn2ccnc2c1)c1ccc(C2CN(C(=O)c3ccc(F)cc3F)C2)cc1 [Example 641, 4-[1-(2,4-difluorobenzoyl)azetidin-3-yl]-N-(imidazo[1,2-a]pyridin-7-ylmethyl)benzamide]
6.34 | 9.27 | 7.02 | Cn1ccc(C(=O)N2CC(c3ccc(C(=O)NCc4ccn5ccnc5c4)cc3)C2)n1 [Example 642, N-(imidazo[1,2-a]pyridin-7-ylmethyl)-4-{1-[(1-methyl-1H-pyrazol-3-yl)carbonyl]azetidin-3-yl}benzamide]
7.55 | 9.26 | 8.16 | O=C(NCc1ccn2ccnc2c1)c1ccc(C2CN(C(=O)c3ccccc3Cl)C2)cc1 [Example 643, 4-[1-(2-chlorobenzoyl)azetidin-3-yl]-N-(imidazo[1,2-a]pyridin-7-ylmethyl)benzamide]
7.09 | 9.16 | 8.39 | Cc1ccccc1C(=O)N1CC(c2ccc(C(=O)NCc3ccn4ccnc4c3)cc2)C1 [Example 644, N-(imidazo[1,2-a]pyridin-7-ylmethyl)-4-[1-(2-methylbenzoyl)azetidin-3-yl]benzamide]
7.04 | 9.32 | 7.47 | O=C(NCc1ccn2ccnc2c1)c1ccc(C2CN(C(=O)c3ccc(Cl)cc3)C2)cc1 [Example 645, 4-[1-(4-chlorobenzoyl)azetidin-3-yl]-N-(imidazo[1,2-a]pyridin-7-ylmethyl)benzamide]
6.71 | 9.29 | 6.89 | O=C(NCc1ccn2ccnc2c1)c1ccc(C2CN(C(=O)c3cccc(Cl)c3)C2)cc1 [Example 646, 4-[1-(3-chlorobenzoyl)azetidin-3-yl]-N-(imidazo[1,2-a]pyridin-7-ylmethyl)benzamide]
6.76 | 9.17 | 8.16 | CCC(C)(C)C(=O)N1CC(c2ccc(C(=O)NCc3ccn4ccnc4c3)cc2)C1 [Example 647, 4-[1-(2,2-dimethylbutanoyl)azetidin-3-yl]-N-(imidazo[1,2-a]pyridin-7-ylmethyl)benzamide]
6.18 | 8.97 | 6.69 | O=C(NCc1ccn2ccnc2c1)c1ccc(C2CN(C(=O)c3cc(F)cc(F)c3)C2)cc1 [Example 648, 4-[1-(3,5-difluorobenzoyl)azetidin-3-yl]-N-(imidazo[1,2-a]pyridin-7-ylmethyl)benzamide]
6.69 | 9.13 | 7.15 | O=C(NCc1ccn2ccnc2c1)c1ccc(C2CN(C(=O)c3ccc(F)cc3)C2)cc1 [Example 649, 4-[1-(4-fluorobenzoyl)azetidin-3-yl]-N-(imidazo[1,2-a]pyridin-7-ylmethyl)benzamide]
6.82 | 8.95 | 7.23 | Cc1ccc(C(=O)N2CC(c3ccc(C(=O)NCc4ccn5ccnc5c4)cc3)C2)cc1 [Example 650, N-(imidazo[1,2-a]pyridin-7-ylmethyl)-4-[1-(4-methylbenzoyl)azetidin-3-yl]benzamide]
6.56 | 9.15 | 7.19 | CC(C)CC(=O)N1CC(c2ccc(C(=O)NCc3ccn4ccnc4c3)cc2)C1 [Example 651, N-(imidazo[1,2-a]pyridin-7-ylmethyl)-4-[1-(3-methylbutanoyl)azetidin-3-yl]benzamide]
